The source made the active and inactive calls. The calls are words filed in the database; no cut-off is given here.

Data on three compounds can be found in ChEMBL document CHEMBL4229418, “Design, synthesis and pharmacology of aortic-selective acyl-CoA: Cholesterol O-acyltransferase (ACAT/SOAT) inhibitors” (Bioorg Med Chem, 2018).

The nature of series [1]: Inhibition of SOAT1 in arterial homogenates isolated from 1% cholesterol fed New Zealand white rabbit assessed as reduction in cholesteryl oleate formation incubated for 5 mins in presence of [14C]-oleoyl-CoA and BSA complex by TLC method. The format is tissue-based, Oryctolagus cuniculus.
Series [2] can be described thus: Inhibition of SOAT2 in New Zealand white rabbit intestinal microsomes assessed as reduction in cholesteryl oleate formation incubated for 5 mins in presence of [14C]-oleoyl-CoA and BSA complex by TLC method. Set-up: species or system Oryctolagus cuniculus, Intestine.
Series [3] in a line: Inhibition of rabbit intestinal ACAT2. Also on record: species or system Oryctolagus cuniculus.
The target in series [4] is T1, Sterol O-acyltransferase 1 (Rattus norvegicus, UniProt O70536).
T1 sequence (O70536 whole entry): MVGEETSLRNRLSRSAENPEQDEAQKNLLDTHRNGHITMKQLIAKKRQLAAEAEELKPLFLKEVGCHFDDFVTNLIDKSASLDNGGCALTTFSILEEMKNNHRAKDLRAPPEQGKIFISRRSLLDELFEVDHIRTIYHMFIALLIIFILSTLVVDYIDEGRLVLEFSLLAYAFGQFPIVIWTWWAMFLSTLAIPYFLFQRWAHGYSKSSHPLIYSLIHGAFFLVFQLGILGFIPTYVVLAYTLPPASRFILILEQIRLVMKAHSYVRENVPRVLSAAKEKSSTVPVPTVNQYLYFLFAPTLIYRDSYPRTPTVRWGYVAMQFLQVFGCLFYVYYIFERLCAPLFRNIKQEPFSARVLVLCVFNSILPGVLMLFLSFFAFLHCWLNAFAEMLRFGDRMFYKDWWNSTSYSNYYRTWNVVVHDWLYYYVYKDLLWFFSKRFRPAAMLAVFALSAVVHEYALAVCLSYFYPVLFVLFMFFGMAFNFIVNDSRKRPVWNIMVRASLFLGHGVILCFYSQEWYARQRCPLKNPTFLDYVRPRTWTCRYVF
As to the kind of experiment: Inhibition of ACAT1 in 0.2 mg/ml rat liver microsomes. (In general: Liver microsomes are vesicles of endoplasmic reticulum, rich in cytochrome P450 enzymes.)

Series [5] has as its system Hamster. As to the kind of experiment: Toxicity in Bio F1B hamster model of diet-induced atherosclerosis assessed as reduction in total plasma cholesterol at 1 mg/kg/day added to chow pellets relative to control. The format is organism-based. Also on record: scale not given: the % may be the effect or the level left. As to conditions: cricetinae, in vivo.
For series [6], the target named is T2, Sterol O-acyltransferase 1 (Homo sapiens, UniProt P35610).
T2 sequence (P35610 whole entry): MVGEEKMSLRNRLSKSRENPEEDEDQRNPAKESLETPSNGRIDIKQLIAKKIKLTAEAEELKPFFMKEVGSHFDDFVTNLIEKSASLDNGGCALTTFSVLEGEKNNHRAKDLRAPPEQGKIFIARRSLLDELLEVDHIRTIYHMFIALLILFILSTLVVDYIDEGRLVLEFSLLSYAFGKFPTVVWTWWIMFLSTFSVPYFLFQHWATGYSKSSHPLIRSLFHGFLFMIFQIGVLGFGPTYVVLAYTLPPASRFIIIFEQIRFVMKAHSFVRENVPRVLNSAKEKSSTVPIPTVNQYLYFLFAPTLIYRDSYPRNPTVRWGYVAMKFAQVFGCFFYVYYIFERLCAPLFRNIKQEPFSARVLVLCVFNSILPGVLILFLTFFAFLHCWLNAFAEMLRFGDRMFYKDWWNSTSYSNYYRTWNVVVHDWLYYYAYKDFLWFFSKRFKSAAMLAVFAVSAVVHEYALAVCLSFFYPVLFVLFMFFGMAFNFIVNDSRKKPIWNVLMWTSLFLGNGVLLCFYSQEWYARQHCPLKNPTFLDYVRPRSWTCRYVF
The series can be described thus: Inhibition of ACAT1 in human monocytes-derived macrophages reduction in cholesteryl oleate formation preincubated for 2 hrs followed by [14C]-oleic acid/BSA/sodium oleate addition measured after 2 hrs by TLC assay.

The nature of series [7]: Tmax in non-fasted Sprague-Dawley rat at 30 mg/kg, po by LC-MS/MS analysis. To be noted: in vivo. The format is ADME, organism-based.
Series [8] addresses T3, Sterol O-acyltransferase 1 (Mus musculus, UniProt Q61263).
T3 sequence (Q61263 whole entry): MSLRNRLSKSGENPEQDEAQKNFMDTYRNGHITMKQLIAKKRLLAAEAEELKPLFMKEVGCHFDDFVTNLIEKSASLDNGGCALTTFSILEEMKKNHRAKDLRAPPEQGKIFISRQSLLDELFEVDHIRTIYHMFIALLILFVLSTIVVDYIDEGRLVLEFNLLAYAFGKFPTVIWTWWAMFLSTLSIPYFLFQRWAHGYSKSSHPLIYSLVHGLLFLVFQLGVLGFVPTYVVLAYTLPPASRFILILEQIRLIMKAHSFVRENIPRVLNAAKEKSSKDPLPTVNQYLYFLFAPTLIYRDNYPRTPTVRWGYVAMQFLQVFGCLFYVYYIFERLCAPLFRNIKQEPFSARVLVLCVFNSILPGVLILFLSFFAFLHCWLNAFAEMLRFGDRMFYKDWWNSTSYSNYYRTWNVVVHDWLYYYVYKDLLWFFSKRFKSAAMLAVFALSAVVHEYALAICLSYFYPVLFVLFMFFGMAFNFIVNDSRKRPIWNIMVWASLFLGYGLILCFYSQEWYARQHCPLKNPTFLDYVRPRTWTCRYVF
As to the kind of experiment: Inhibition of ACAT1 in mouse IC21 cells in presence of BSA. The format is cell-based.

Series [9] relates to Hamster. As to the kind of experiment: Antiatherosclerotic activity in Bio F1B hamster model of diet-induced atherosclerosis assessed as reduction in lipid accumulation areas in aortic arch at 1 mg/kg/day added to chow pellets by oil red O staining based assay relative to control. It counts as functional. As to conditions: Cricetinae.
A short description of series [10]: Cmax in non-fasted Sprague-Dawley rat at 30 mg/kg, po by LC-MS/MS analysis. The format is ADME, organism-based. Set-up: dose 30 mg/kg, route oral. As to conditions: in vivo.
Series [11] concerns the target T1, Sterol O-acyltransferase 1. The series can be described thus: Inhibition of ACAT1 in 1 mg/ml rat liver microsomes.
In series [12] the target is T3, Sterol O-acyltransferase 1. The series can be described thus: Inhibition of ACAT1 in mouse IC21 cells in absence of BSA. It counts as cell-based.
The test system of series [13] is Hamster. As to the kind of experiment: Antiatherosclerotic activity in Bio F1B hamster model of diet-induced atherosclerosis assessed as reduction in lipid accumulation areas in aortic arch at 0.3 mg/kg/day added to chow pellets by oil red O staining based assay. As to conditions: Cricetinae. The format is functional, organism-based.
Series [14] relates to Hamster. The series can be described thus: Toxicity in Bio F1B hamster model of diet-induced atherosclerosis assessed as reduction in total plasma cholesterol at 10 mg/kg/day added to chow pellets relative to control. The format is organism-based. Also on record: scale not given: the % may be the effect or the level left. To be noted: cricetinae, in vivo.
Series [15] addresses T3, Sterol O-acyltransferase 1. As to the kind of experiment: Inhibition of ACAT1 in mouse J774 cells assessed as reduction in esterified cholesterol accumulation after 18 hrs in presence of 25-hydroxycholesterol. The format is cell-based.
The target of series [16] is T2, Sterol O-acyltransferase 1. As to the kind of experiment: Inhibition of ACAT1 in human monocytes-derived macrophages reduction in cholesteryl oleate formation preincubated for 2 hrs followed by [14C]-oleic acid/sodium oleate addition measured after 2 hrs in absence of albumin by TLC assay.
Series [17] concerns Hamster. As to the kind of experiment: Antiatherosclerotic activity in Bio F1B hamster model of diet-induced atherosclerosis assessed as reduction in lipid accumulation areas in aortic arch at 10 mg/kg/day added to chow pellets by oil red O staining based assay relative to control. The format is functional. As to conditions: Cricetinae.
Series [18] in a line: AUC (0 to 8 hrs) in non-fasted Sprague-Dawley rat at 30 mg/kg, po by LC-MS/MS analysis. The format is ADME, organism-based. Set-up: dose 30 mg/kg, time < 8 hr, route oral. To be noted: in vivo.
A further series is filed under the species Oryctolagus cuniculus. As to the kind of experiment: Selectivity ratio of IC50 for inhibition of SOAT2 in New Zealand white rabbit intestinal microsomes to IC50 for inhibition of SOAT1 in arterial homogenates isolated from 1% cholesterol fed New Zealand white rabbit.
The subject of series [19] is Hamster. The series can be described thus: Toxicity in Bio F1B hamster model of diet-induced atherosclerosis assessed as reduction in total plasma cholesterol at 3 mg/kg/day added to chow pellets relative to control. The format is organism-based. As to conditions: cricetinae, in vivo. Set-up: scale not given: the % may be the effect or the level left.
In series [20] the test system is Hamster. As to the kind of experiment: Antiatherosclerotic activity in Bio F1B hamster model of diet-induced atherosclerosis assessed as reduction in lipid accumulation areas in aortic arch at 3 mg/kg/day added to chow pellets by oil red O staining based assay relative to control. It counts as functional. As to conditions: Cricetinae.
A short description of series [21]: Drug metabolism in New Zealand white rabbit intestinal microsomes assessed as -((6-((2,6-Diisopropylphenyl)amino)-6-oxohexyl)thio)benzo-[d]oxazole-7-carboxylic acid formation after 30 mins. To be noted: 0.5 h. The format is ADME, Oryctolagus cuniculus, Intestine, microsome.
Series [22] is described as follows: Drug metabolism in New Zealand white rabbit intestinal microsomes assessed as 2-((6-((2,6-Diisopropylphenyl)amino)-6-oxohexyl)thio)-benzo[d]oxazole-4-carboxylic acid formation after 30 mins. The format is ADME, Oryctolagus cuniculus, Intestine, microsome. To be noted: 0.5 h.

Take `CCCCCCCCCCC(C)(C)C(=O)Nc1c(OC)cc(OC)cc1OC` [CL-976]: the IC50 (as a rule, the concentration that inhibits the measured activity by half) in [1] worked out at 190 nM; in [2] it was 30 nM; in [3], 73 nM.

As for `CC(C)c1cc(C(C)C)c(CC(=O)NS(=O)(=O)Oc2c(C(C)C)cccc2C(C)C)c(C(C)C)c1` [AVASIMIBE], the IC50 in series [4] is 700 nM; in series [6] it was 4100 nM; in [8], 760 nM; in [11] it was 12000 nM; in series [1], 31000 nM; in series [2], 13000 nM. Also, the IC50 in series [12] is 60 nM; in [15] it was 590 nM; in [16], 25 nM. Also, the Activity is 55% in the series on Hamster [5], 10% in the series with Hamster [14] and 25% with Hamster [19]. For the same compound, the time to peak (Tmax) (usually the time at which the peak concentration occurs) in series [7] worked out at 3.3 h. Further, the inhibition in vivo – broadly, the percentage by which the read-out fell short of the control – at 1 mg/kg/day in the series on Hamster [9] was 33%. In series [10], the Cmax (as a rule, the maximum level reached in the sampled fluid or tissue) came to 4580 ng/mL. Also, in the series on Hamster [13], the inhibition entry is “Active”. Also, in the series on Hamster [17], the inhibition in vivo at 10 mg/kg/day is 0%. Also, the AUC(0-t) (usually the area under the concentration-time curve up to a stated or last time point) at 8 h in series [18] is 48100 ng·h/mL. Moreover, the Ratio IC50 in the series filed under Oryctolagus cuniculus is 0.4. For the same compound, in the series with Hamster [20], the inhibition in vivo at 3 mg/kg/day was 14%.

Regarding `COC(=O)c1cccc2oc(SCCCCCC(=O)Nc3c(C(C)C)cccc3C(C)C)nc12`, the Drug metabolism result in series [21] and in series [22] was “Metabolite_Detected” in each case. In addition, the figures for the IC50 in series [1], in series [2] and in series [15] were 26 nM, 810 nM and 900 nM, respectively. Besides, the Ratio IC50 in the series listed under Oryctolagus cuniculus worked out at 31.2.
